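96-well plates; 48 h exposure; 5 concentrations. Endpoints by linear interpolation between flanking doses. Not reached: highest tested concentration assigned. GI50 is the concentration that inhibits growth by half.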 Calls of active or inactive are those of the source. Rule as the data show it: active = GI50 up to about 1.1 µM and inactive = higher. A value given as a limit tells only on which side of the number the result lay.

From ChEMBL document CHEMBL1201862, “PubChem BioAssay data set” (2004) come the findings set out here.

Test systems include A498; DLD-1; HCT-15; HOP-62; HOP-92; KM12; LOX IMVI; NCI/ADR-RES; OVCAR-3; OVCAR-4; OVCAR-5; RXF 393; SF-268; SF-295; SK-OV-3; UACC-257; ACHN; SNB-19; TK-10; Hs-578T.
Experiment in all cases: growth of human tumour cells (NCI), 48 h

On to `O=C1c2ccccc2OCC1/C=N/O` (stereo not drawn), for which the GI50 is > 100 µM (inactive) in the assay on A498; > 91.4 µM (inactive) with DLD-1; 63.7 µM with HCT-15; > 100 µM (inactive) in the assay with HOP-62; > 55.1 µM (inactive) in the assay with HOP-92; 96.8 µM (inactive) with KM12. The GI50 was 31.3 µM (inactive) with LOX IMVI; > 100 µM (inactive) with NCI/ADR-RES; > 100 µM (inactive) in the assay with OVCAR-3; > 62.5 µM (inactive) in the assay with OVCAR-4; > 100 µM (inactive) in the assay with OVCAR-5; 32.4 µM (inactive) with RXF 393. Moreover, the GI50 is > 58.9 µM (inactive) with SF-268, > 100 µM (inactive) in the assay on SF-295, > 100 µM (inactive) with SK-OV-3 and > 56.1 µM (inactive) in the assay with UACC-257.

As to `Cn1cc(NC(=O)c2cc(NC(=O)CCCCCCCC(=O)Nc3cc(C(=O)Nc4cc(C(=O)NCCC(=N)N)n(C)c4)n(C)c3)cn2C)cc1C(=O)NCCC(=N)N`, the GI50 is 13.7 µM (inactive) in the assay with A498; 58.1 µM (inactive) in the assay with ACHN; 30.9 µM (inactive) in the assay on DLD-1; > 100 µM in the assay with HCT-15; > 100 µM (inactive) with HOP-62; > 100 µM (inactive) in the assay with HOP-92. In addition, the GI50 was 7.53 µM (inactive) in the assay on KM12; 15 µM (inactive) with LOX IMVI; 32.1 µM (inactive) with OVCAR-3; 46.1 µM (inactive) in the assay on OVCAR-4; > 100 µM (inactive) in the assay with OVCAR-5; 17 µM (inactive) in the assay on RXF 393. The GI50 with SF-268 is 19.8 µM (inactive); in the assay on SF-295 it was > 100 µM (inactive); in the assay on SK-OV-3, > 100 µM (inactive); in the assay on SNB-19, 55.1 µM (inactive); in the assay on TK-10 it was 15 µM (inactive); in the assay on UACC-257, 5.7 µM (inactive).

`NS(=O)(=O)c1ccc(NC(=O)c2cccc3cc4ccccc4nc23)cc1`: the GI50 with A498 was > 43.7 µM (inactive); in the assay with ACHN, 6.64 µM (inactive); in the assay with DLD-1, 17.1 µM (inactive); with HCT-15, 12.6 µM; with HOP-62, > 58.6 µM (inactive); in the assay on HOP-92 it was 15.1 µM (inactive). The GI50 in the assay with Hs-578T was 8.53 µM (inactive); in the assay on KM12 it was 11.3 µM (inactive); in the assay with LOX IMVI it was 6.14 µM (inactive); in the assay on NCI/ADR-RES it was 11.8 µM (inactive); with OVCAR-3, 46.6 µM (inactive); in the assay with OVCAR-4, 21 µM (inactive). Also, the GI50 was > 96.2 µM (inactive) in the assay on OVCAR-5; 17.7 µM (inactive) in the assay on RXF 393; 56.9 µM (inactive) with SF-268; 16.3 µM (inactive) with SF-295; > 88.7 µM (inactive) in the assay on SK-OV-3; 28.3 µM (inactive) in the assay with SNB-19. In addition, the values for the GI50 with TK-10 and in the assay on UACC-257 were 28.2 µM (inactive) and 71.4 µM (inactive), respectively.

As for `CC1=C2C(O)C(C(C)C(=O)NCC(C)C)CCC2(C)C=CC1=O` (stereo not drawn), the GI50 was > 100 µM (inactive) in the assay on A498; > 100 µM (inactive) with DLD-1; > 100 µM in the assay on HCT-15; > 100 µM (inactive) with HOP-62; > 100 µM (inactive) with HOP-92; > 100 µM (inactive) in the assay on KM12. The GI50 in the assay on LOX IMVI, in the assay on NCI/ADR-RES, in the assay with OVCAR-3, in the assay with OVCAR-4, in the assay on OVCAR-5 and in the assay with RXF 393 was > 100 µM (inactive) in each case. Also, the GI50 in the assay with SF-268, in the assay on SF-295, with SNB-19 and in the assay on UACC-257 was > 100 µM (inactive) in each case.

Turning to `CC#N.O[C@@H]1CCCC[C@H]1O.O[C@@H]1CCCC[C@H]1O.[TeH2]`, the GI50 in the assay with A498 was > 100 µM (inactive); with ACHN it was 46.3 µM (inactive); in the assay with DLD-1, 32.2 µM (inactive); in the assay with HCT-15, 18.1 µM; in the assay with HOP-62, 53.5 µM (inactive); in the assay on HOP-92, 26.2 µM (inactive). Also, the GI50 is 42.7 µM (inactive) with KM12; 9.57 µM (inactive) with LOX IMVI; 19.1 µM (inactive) in the assay on OVCAR-3; 61.8 µM (inactive) in the assay with OVCAR-4; 23.8 µM (inactive) in the assay on OVCAR-5; > 100 µM (inactive) in the assay on RXF 393. Also, the GI50 in the assay with SF-268 was > 100 µM (inactive); in the assay with SF-295, 18.6 µM (inactive); in the assay on SK-OV-3, > 100 µM (inactive); in the assay with SNB-19 it was 39.8 µM (inactive); in the assay with TK-10 it was > 100 µM (inactive); in the assay on UACC-257 it was > 100 µM (inactive).
